Source: PMC5785958, “New role of phenothiazine derivatives as peripherally acting CB1 receptor antagonizing anti-obesity agents” (Scientific Reports, 2018)

Experiments:
[1] = biological target: T1, CB1 receptor (Rattus norvegicus, UniProt P20272); experiment: In vivo CB1 receptor antagonistic activity against WIN-55212-2 hyperphagia; details: 24 h fasted rats, test compound 10 mg/kg p.o., WIN-55212-2 2 mg/kg i.p.
T1 construct: from tissue; host or cells: whole living animal (male Wistar rat); receptor endogenous in central and peripheral tissues
Protocol: Here also, the quantity of feed consumed by the control group animals was taken as 100%.
In another set of experiments, in vivo CB1 receptor antagonistic activity of the test compounds was assessed.

[2] = tested on: Wistar rats; experiment: Acute hypophagic response in 24 h food-deprived rats; assay type: in vivo, rat; details: for effect on food intake (in words): 2 h; for food intake (control = 100%): 10 mg/kg
Protocol: As a preliminary screening, the synthesized compounds were evaluated for acute hypophagia in rats and the results are summarized in Fig. 5. Twenty four hour food deprived Wistar rats were given weighed amounts of food pellets after administration of the test compounds. Quantum of food consumed by the control group of animals was considered as 100%.
Male Wistar rats weighing 200–250 g were used in the present study to assess the acute hypophagic response. Animals were housed individually in a plexi-glass cage in a temperature and humidity controlled room with a 12 h light/dark cycle. Standard chow pellets and water were made available ad libitum. Animals were handled daily for a week before performing the actual experiments. The animal study protocol was approved by the Institutional Animal Ethics Committee (IAEC) of Faculty of Pharmacy, The Maharaja Sayajirao University of Baroda (Approval no. MSU/IAEC/2014-15/1401). The experiments were conducted in accordance to the guidelines of CPCSEA (Committee for the Purpose of Control and Supervision of Experiments on Animals), Ministry of Environment & Forests, Govt. of India. We tried our best to reduce the number of animals and their suffering.
The acute effect of the synthesized test compounds on feeding behavior was assessed in 24 h food-deprived animals. Before performing the experiments, the bedding material was removed from the cage. The animals were deprived of feed for 24 h with free access to water. The fasted animals were administered with the test compounds (10 mg/kg, p.o.). After 30 min of administration, weighed amounts of food pellets were served to the animals. Amount of food pellets and food spillage remaining after 2 h were weighed to find out the amount of food consumed by the animals.

[3] = PAMPA-BBB in vitro permeability assay; assay type: in vitro ADME, porcine; design: key to Prediction (penetration in CNS): CNS- indicates low passive CNS permeation; details: for Prediction (penetration in CNS): from PAMPA-BBB Pe, Pe less than 3.8 × 10^−6 cm s^−1 = low BBB permeation; for Papp at 120 min, 100 µg/ml: pig, PAMPA-BBB, porcine brain lipid, PBS/ethanol (70:30), 25 °C, mean ± SEM of three experiments, read-out: Pe
Protocol: As discussed above, BBB permeation of the available CB1 receptor antagonists limits their therapeutic utility. A successful CB1 receptor antagonist to be used as anti-obesity agent must be devoid of BBB permeability. […] In this study, the ability of the test compounds to cross the BBB was determined by the well established in vitro model PAMPA-BBB assay. This simple and rapid model has the advantage to predict passive BBB permeation with high accuracy[57],[58]. The in vitro permeability (Pe) of the test compounds through the lipid extract of porcine brain was determined in PBS/ethanol (70:30).
To assess the in vivo brain permeability potential of the test compounds, PAMPA assay for BBB was performed as reported by Di. et al.[57]. The donor microplate (polyvinylidene fluoride (PVDF) membrane, diameter 25 mm, pore size 0.45 µm Millipore) and the acceptor microplate were used for the experiment. The acceptor microplate was filled with 200 µl phosphate buffer saline (PBS) and ethanol in the ratio of 70:30 whereas the donor microplate filter surface was impregnated with porcine brain lipid (Avanti Polar Lipids) in dodecane (Sigma) (4 µl of 20 mg/ml). 200 µl of the test compound (100 µg/ml in PBS/ethanol) was added to the donor well. A sandwich was formed by placing the donor plate carefully on the acceptor plate, and the plates were kept undisturbed for 120 min at 25 °C. The donor plate was carefully detached after the incubation period and concentration of the test compound in the acceptor wells was determined using UV spectroscopy. Each sample was analyzed in four wells at five different wavelengths, and at least in three independent runs. Assay validation was performed by using nine commercial quality standard drugs of known BBB permeability[75] in which the reported permeability values of the standards were compared with their experimental permeability values, which gave a linear relationship, Pe(exp.) = 1.171Pe(bibl.) + 1.489 (R^2 = 0.983)[57],[58].

[4] = design: method as in PMID 20664173; details: cited from earlier work
[5] = tested on: CB1R; design: method as in PMID 20652930; details: read-out: CB1R antagonist activity EC50; cited from earlier work
[6] = 24 h fasted male Wistar rats, 10 mg/kg p.o.
[7] = 24 h fasted male Wistar rats, 10 mg/kg p.o., food served after 30 min, intake over 2 h

T1 sequence (P20272 whole entry): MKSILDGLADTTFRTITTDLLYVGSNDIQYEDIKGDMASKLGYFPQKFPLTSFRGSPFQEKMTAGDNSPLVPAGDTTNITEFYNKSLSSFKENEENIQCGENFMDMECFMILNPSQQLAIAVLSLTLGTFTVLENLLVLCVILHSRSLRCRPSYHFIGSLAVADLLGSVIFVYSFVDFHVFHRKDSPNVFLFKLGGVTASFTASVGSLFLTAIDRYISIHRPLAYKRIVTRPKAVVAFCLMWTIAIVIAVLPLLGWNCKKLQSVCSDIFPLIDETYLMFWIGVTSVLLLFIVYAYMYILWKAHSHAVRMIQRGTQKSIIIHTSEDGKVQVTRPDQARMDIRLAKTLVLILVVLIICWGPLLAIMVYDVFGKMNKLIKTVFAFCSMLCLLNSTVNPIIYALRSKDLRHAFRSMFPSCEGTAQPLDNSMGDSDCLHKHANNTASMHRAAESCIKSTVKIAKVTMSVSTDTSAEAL

SMILES	melting point	Prediction (penetration in CNS) [3]	Papp at 120 min, 100 µg/ml [3]	effect on hyperphagic effect of WIN-55212-2 (in words) [1]	effect on food intake (in words) [2, 6]	food intake (control = 100%) [2, 7]	food intake (control = 100%) ([2]; po)	brain penetration (in words) [4]	EC50 [5]
COc1ccc2c(c1)N(C(=O)CSc1ncc(C#N)c(N)n1)c1ccccc1S2 [Compound 23, 4-Amino-2-(2-(2-methoxy-10H-phenothiazin-10-yl)-2-oxoethylthio)pyrimidine-5-carbonitrile]	215 to 217 °C	CNS-	3.08 ± 0.16 ×10⁻⁶ cm/s	suppressed the hyperphagic effect of WIN-55212-2	significant hypophagic activity	19–43%	19%		
Cc1c(C(=O)NN2CCS(=O)(=O)CC2)nn(-c2ccc(Cl)cc2Cl)c1-c1ccc(C#CCCC#N)cc1 [AM-6545]								limited brain penetration	
CCc1c(C(=O)NN2CCCCC2)nn(-c2ccc(Cl)cc2Cl)c1-c1ccc(C#Cc2ccc(C(F)(F)F)cc2)s1 [TM38837]									8.5 nM

Further lines, with some results ahead:

melting point	Prediction (penetration in CNS) [3]	Papp at 120 min, 100 µg/ml [3]	SMILES	effect on hyperphagic effect of WIN-55212-2 (in words) [1]	effect on food intake (in words) [2, 6]	food intake (control = 100%) [2, 7]	food intake (control = 100%) ([2]; po)	brain penetration (in words) [4]	EC50 [5]
104 to 106 °C	CNS-	2.8 ± 0.58 ×10⁻⁶ cm/s	CCOC(=O)c1cnc(SCC(=O)N2c3ccccc3Sc3ccc(OC)cc32)nc1N [Compound 27, Ethyl 4-amino-2-(2-(2-methoxy-10H-phenothiazin-10-yl)-2-oxoethylthio)pyrimidine-5-carboxylate]	suppressed the hyperphagic effect of WIN-55212-2	significant hypophagic activity	19–43%	19%		
148 to 151 °C	CNS-	2.72 ± 0.19 ×10⁻⁶ cm/s	CCOC(=O)c1cnc(SCC(=O)N2c3ccccc3Sc3ccc(C(F)(F)F)cc32)nc1N [Compound 25, Ethyl 4-amino-2-(2-(2-trifluoromethyl-10H-phenothiazin-10-yl)-2-oxoethylthio)-pyrimidine-5-carboxylate]	suppressed the hyperphagic effect of WIN-55212-2	significant hypophagic activity	19–43%	37%		
225 to 227 °C	CNS-	2.09 ± 0.82 ×10⁻⁶ cm/s	Nn1c(SCC(=O)N2c3ccccc3Sc3ccc(Cl)cc32)nnc1-c1ccncc1 [Compound 34, 2-(4-Amino-5-(4-pyridyl)-4H-1,2,4-triazol-3-ylthio)-1-(2-chloro-10H-phenothiazin-10-yl)ethanone]	suppressed the hyperphagic effect of WIN-55212-2	significant hypophagic activity				
